Reference: US9255078B2, “Micheliolide derivatives, medicinal composition, producing method and usage thereof” (ACCENDATECH, priority 2010, dated 2016)
pIC50: −log10 of the molar value. Where a name gives a salt, the structure may show the parent alone. Read-outs that look alike come from different tables or passages of the source. Each block holds one compound with its values, some of them ahead of it.

What was measured:
Type in all cases: cell-based
Settings in all cases: incubated 18 hours, read-out: inhibitory activity against different cancer cells (IC50)
HepG-2 = experiment: MTT assay, HepG-2 hepatocellular carcinoma cell lines
Procedure: (§1) A variety of cancer cells are suspended to 2×10^5/mL, and then added into 24-hole Round-bottomed tissue culture plate. After that micheliolide and its derivatives are added, herein a test with one density occupies 5 holes. The resulting suspension are incubated (under 37° C., 5% CO2) for 18 hours to allow the compounds to take effect. A absorbance (A) value is measured by using the method of MTT assay and an enzyme-linked detector under 570 nm wavelength, and then the inhibitory activity of the compounds is concluded.
(§2) In Table 1, HL-60, K562, MCF-7, CNE-1, CNE-2, SW620, A549, HepG2, Ec9706, SGC7901, SW1116, A498, ASPC-1, HT-29, HeLa, GL15, B16F1, T24, SKOV3, SW579, PC-3, represents acute leukemia cell lines, Chronic leukemia cell lines, Breast cancer cell lines, High differentiation nasopharyngeal carcinoma cell line, Poorly differentiated nasopharyngeal carcinoma cell lines, Colorectal cancer cell line, Lung cancer cell lines, Hepatocellular carcinoma cell lines, Esophageal cancer cell line, Gastric cancer cell line, Colon cancer cell line, Renal cell carcinoma cell line, Pancreatic cancer cell line, Colon cancer cell lines, uterine cervical cancer cell lines, Horny man neuroblastoma cell lines, Melanoma cell line, human bladder cancer cell line, ovarian cancer cell lines, thyroid cancer cells, prostate cancer cell lines, respectively.

K562 = experiment: MTT assay, K562 chronic leukemia cell lines
Procedure: as §1, §2

PC-3 = experiment: MTT assay, PC-3 prostate cancer cell lines
Procedure: as §1, §2

HeLa = experiment: MTT assay, HeLa uterine cervical cancer cell lines
Procedure: as §1, §2

MCF-7 = experiment: MTT assay, MCF-7 breast cancer cell lines
Procedure: as §1, §2

GL15 = experiment: MTT assay, GL15 neuroblastoma cell lines
Procedure: as §1, §2

CNE-2 = experiment: MTT assay, CNE-2 poorly differentiated nasopharyngeal carcinoma cell lines
Procedure: as §1, §2

HL-60 = experiment: MTT assay, HL-60 acute leukemia cell lines
Procedure: as §1, §2

SW579 = experiment: MTT assay, SW579 thyroid cancer cells
Procedure: as §1, §2

SGC7901 = experiment: MTT assay, SGC7901 gastric cancer cell line
Procedure: as §1, §2

A549 = experiment: MTT assay, A549 lung cancer cell lines
Procedure: as §1, §2

ASPC-1 = experiment: MTT assay, ASPC-1 pancreatic cancer cell line
Procedure: as §1, §2

SW1116 = experiment: MTT assay, SW1116 colon cancer cell line
Procedure: as §1, §2

Ec9706 = experiment: MTT assay, Ec9706 esophageal cancer cell line
Procedure: as §1, §2

B16F1 = experiment: MTT assay, B16F1 melanoma cell line
Procedure: as §1, §2

A498 = experiment: MTT assay, A498 renal cell carcinoma cell line
Procedure: as §1, §2

SW620 = experiment: MTT assay, SW620 colorectal cancer cell line
Procedure: as §1, §2

HT-29 = experiment: MTT assay, HT-29 colon cancer cell lines
Procedure: as §1, §2

CNE-1 = experiment: MTT assay, CNE-1 high differentiation nasopharyngeal carcinoma cell line
Procedure: as §1, §2

T24 = experiment: MTT assay, T24 human bladder cancer cell line
Procedure: as §1, §2

SKOV3 = experiment: MTT assay, SKOV3 ovarian cancer cell lines
Procedure: as §1, §2

pIC50 (HepG-2): 8.35 | pIC50 (K562): 8.38 | pIC50 (PC-3): 8.06 | pIC50 (HeLa): 8.03 | pIC50 (MCF-7): 8.34 | pIC50 (GL15): 7.90 | pIC50 (CNE-2; Homo sapiens, CNE-2, 18 h): 7.78 | pIC50 (HL-60): 8.62 | pIC50 (SW579; SW579, 18 h): 7.76 | pIC50 (SGC7901; Homo sapiens, SGC-7901, 18 h): 7.84 | pIC50 (A549): 8.14 | pIC50 (ASPC-1): 8.41 | pIC50 (SW1116): 7.94 | pIC50 (Ec9706; Homo sapiens, EC9706, 18 h): 8.04 | pIC50 (B16F1): 8.47 | pIC50 (A498; Homo sapiens, A498, 18 h): 7.91 | pIC50 (SW620): 8.24 | pIC50 (HT-29): 8.32 | pIC50 (CNE-1): 7.95 | pIC50 (T24; Homo sapiens, T-24, 18 h): 7.85 | pIC50 (SKOV3): 8.23
Structure (SMILES): CC1=C2CC[C@@](C)(O)[C@@H]2[C@H]2OC(=O)[C@@H](CN(C)C)[C@@H]2CC1 [Compound II, 11βH,13-Dihydro, 13-dimethylaminomicheliolide]

pIC50 (HepG-2; Homo sapiens, HepG2, 18 h): 7.81 | pIC50 (K562; Homo sapiens, K562, 18 h): 8.17 | pIC50 (PC-3; Homo sapiens, PC-3, 18 h): 7.94 | pIC50 (HeLa; Homo sapiens, 18 h): 7.76 | pIC50 (MCF-7; Homo sapiens, MCF7, 18 h): 8.47 | pIC50 (GL15; Neuroblastoma cell, 18 h): 7.84 | pIC50 (CNE-2; Homo sapiens, CNE-2, 18 h): 7.91 | pIC50 (HL-60; Homo sapiens, HL-60, 18 h): 8.35 | pIC50 (SW579; SW579, 18 h): 7.65 | pIC50 (SGC7901; Homo sapiens, SGC-7901, 18 h): 7.83 | pIC50 (A549; Homo sapiens, A549, 18 h): 8.11 | pIC50 (ASPC-1; Homo sapiens, ASPC1, 18 h): 7.82 | pIC50 (SW1116; Homo sapiens, SW 1116, 18 h): 7.67 | pIC50 (Ec9706; Homo sapiens, EC9706, 18 h): 8.12 | pIC50 (B16F1; Mus musculus, B16-F1, 18 h): 7.88 | pIC50 (A498; Homo sapiens, A498, 18 h): 8.28 | pIC50 (SW620; Homo sapiens, SW-620, 18 h): 8.25 | pIC50 (HT-29; Homo sapiens, HT-29, 18 h): 8.01 | pIC50 (CNE-1; 18 h): 8.23 | pIC50 (T24; Homo sapiens, T-24, 18 h): 7.87 | pIC50 (SKOV3; Homo sapiens, SK-OV-3, 18 h): 8.03
Structure (SMILES): C=C1C(=O)O[C@H]2[C@H]1CCC(C)=C1CC[C@@](C)(OC(=O)CC)[C@@H]12 [Compound III, 4-propionylmicheliolide]

pIC50 (HepG-2; Homo sapiens, HepG2, 18 h): 8.13 | pIC50 (K562; Homo sapiens, K562, 18 h): 8.01 | pIC50 (PC-3; Homo sapiens, PC-3, 18 h): 7.76 | pIC50 (HeLa; Homo sapiens, 18 h): 8.01 | pIC50 (MCF-7; Homo sapiens, MCF7, 18 h): 8.05 | pIC50 (GL15; Neuroblastoma cell, 18 h): 7.67 | pIC50 (CNE-2; Homo sapiens, CNE-2, 18 h): 8.25 | pIC50 (HL-60; Homo sapiens, HL-60, 18 h): 8.24 | pIC50 (SW579; SW579, 18 h): 7.91 | pIC50 (SGC7901; Homo sapiens, SGC-7901, 18 h): 7.87 | pIC50 (A549; Homo sapiens, A549, 18 h): 8.24 | pIC50 (ASPC-1; Homo sapiens, ASPC1, 18 h): 7.58 | pIC50 (SW1116; Homo sapiens, SW 1116, 18 h): 7.93 | pIC50 (Ec9706; Homo sapiens, EC9706, 18 h): 8.18 | pIC50 (B16F1; Mus musculus, B16-F1, 18 h): 8.28 | pIC50 (A498; Homo sapiens, A498, 18 h): 8.37 | pIC50 (SW620; Homo sapiens, SW-620, 18 h): 8.42 | pIC50 (HT-29; Homo sapiens, HT-29, 18 h): 8.01 | pIC50 (CNE-1; 18 h): 8.17 | pIC50 (T24; Homo sapiens, T-24, 18 h): 8.10 | pIC50 (SKOV3; Homo sapiens, SK-OV-3, 18 h): 7.98
Structure (SMILES): C=C1C(=O)O[C@H]2[C@H]1CC[C@]1(C)O[C@@]13CC[C@@](C)(O)[C@H]23 [Compound IV, 1,10-Epoxymicheliolide]

pIC50 (HepG-2; hydrochloride): 7.55 | pIC50 (K562; hydrochloride): 7.67 | pIC50 (PC-3; hydrochloride): 7.63 | pIC50 (HeLa; hydrochloride): 7.48 | pIC50 (MCF-7; hydrochloride): 7.57 | pIC50 (GL15; hydrochloride): 7.59 | pIC50 (CNE-2; hydrochloride): 7.77 | pIC50 (HL-60; hydrochloride): 7.94 | pIC50 (SW579; hydrochloride): 7.49 | pIC50 (SGC7901; hydrochloride): 7.60 | pIC50 (A549; hydrochloride): 7.74 | pIC50 (ASPC-1; hydrochloride): 7.47 | pIC50 (SW1116; hydrochloride): 7.51 | pIC50 (Ec9706; hydrochloride): 7.80 | pIC50 (B16F1; hydrochloride): 7.73 | pIC50 (A498; hydrochloride): 7.79 | pIC50 (SW620; hydrochloride): 7.87 | pIC50 (HT-29; hydrochloride): 7.72 | pIC50 (CNE-1; hydrochloride): 7.65 | pIC50 (T24; hydrochloride): 7.65 | pIC50 (SKOV3; hydrochloride): 7.81
Structure (SMILES): CC1=C2CC[C@@](C)(O)[C@@H]2[C@H]2OC(=O)[C@@H](CN(C)C)[C@@H]2CC1 [Compound V, 11βH,13-Dihydro, 13-dimethylaminomicheliolide hydrochloride]
